From ChEMBL document CHEMBL1157403, “Lanostane-type triterpenoids from the roots of Kadsura coccinea” (2008)

System: HL-60
Assay: Antiproliferative activity against human HL60 cells after 3 days by trypan blue staining
Format: functional
Details: HL-60, 72 h

SMILES | GI50 [µM]
O=c1[nH]cc(F)c(=O)[nH]1 [FLUOROURACIL] | 3.8
C=C(C)[C@@H]1CC=C2[C@H](CC[C@]3(C)[C@@H]([C@H](C)CC(=O)CC(C)C)CC[C@@]23C)[C@@]1(C)CCC(=O)O [SECO-COCCINIC ACID A] | 6.8
C=C(C)[C@@H]1CC=C2[C@H](CC[C@]3(C)[C@@H]([C@H](C)CC(=O)C=C(C)C)CC[C@@]23C)[C@@]1(C)CCC(=O)O [SECO-COCCINIC ACID B] | 13.3
C=C(C)[C@@H]1CC=C2[C@H](CC[C@]3(C)[C@@H]([C@H](C)CC(=O)CC(C)(C)O)CC[C@@]23C)[C@@]1(C)CCC(=O)O [SECO-COCCINIC ACID C] | 12.1
C=C(C)[C@H](O)CC[C@@H](C)[C@H]1CC[C@@]2(C)C3=CC[C@@H](C(=C)C)[C@](C)(CCC(=O)O)[C@@H]3CC[C@]12C [SECO-COCCINIC ACID E] | 42.1
